The numbers were not newly measured in patent EP3338772A1, “[…] COMPOSITIONS STABILIZED BY HYDROXYCARBOXYLIC ACIDS , THE PRODUCTION THEREOF AND HIGHLY CONCENTRATED MAGNESIUM COMPOSITIONS” (Merz Pharma GmbH & Co. KGaA, priority 2016, dated 2018), which cites them from elsewhere.

Where two headings read alike, the source gives them in different places.

For data set [1] the following is noted: water.

For the substance Calcium-Magnesium-Lactat-Citrat-Komplex, in data set [1], the “Löslichkeit in Wasser, Calcium” value is listed as 900 mg/L and the “Löslichkeit in Wasser, Magnesium” value is 300 mg/L. On to “Trimagnesiumdicitrat*Nonahydrat (C12H10O14Mg3*9H2O)”, for which, for the setting “25 °C”, the Löslichkeit was 18,14 g(Mg^2+)kg^-1H2O. Take “Trimagnesiumdicitrat*Tetradecanhydrat (C12H10O14Mg3*14H2O)”: the Löslichkeit (22 °C) is recorded as 19,40 g(Mg^2+)kg^-1H2O. Further, where the note is “Raumtemperatur, without hydroxycarboxylic acid”, the “maximale Magnesium-Konzentration” value is listed as 19,40 g(Mg^2+) kg^-1 (Wasser).
